Source: article PMC3384716 (Steroids, 2012)

Key:
ER = target: T1, ER (Homo sapiens, UniProt P03372); test: ER reporter gene assay; format: cell-based; details: for inhibition of ER transactivation (in words) / Reporter Assay (% Activity) ER: 10 μM compound; for Reporter Assay (% Activity) ER: 5 nM estradiol, 24 h, % of maximal luciferase activity (100%)
T1 sequence (P03372 1-595): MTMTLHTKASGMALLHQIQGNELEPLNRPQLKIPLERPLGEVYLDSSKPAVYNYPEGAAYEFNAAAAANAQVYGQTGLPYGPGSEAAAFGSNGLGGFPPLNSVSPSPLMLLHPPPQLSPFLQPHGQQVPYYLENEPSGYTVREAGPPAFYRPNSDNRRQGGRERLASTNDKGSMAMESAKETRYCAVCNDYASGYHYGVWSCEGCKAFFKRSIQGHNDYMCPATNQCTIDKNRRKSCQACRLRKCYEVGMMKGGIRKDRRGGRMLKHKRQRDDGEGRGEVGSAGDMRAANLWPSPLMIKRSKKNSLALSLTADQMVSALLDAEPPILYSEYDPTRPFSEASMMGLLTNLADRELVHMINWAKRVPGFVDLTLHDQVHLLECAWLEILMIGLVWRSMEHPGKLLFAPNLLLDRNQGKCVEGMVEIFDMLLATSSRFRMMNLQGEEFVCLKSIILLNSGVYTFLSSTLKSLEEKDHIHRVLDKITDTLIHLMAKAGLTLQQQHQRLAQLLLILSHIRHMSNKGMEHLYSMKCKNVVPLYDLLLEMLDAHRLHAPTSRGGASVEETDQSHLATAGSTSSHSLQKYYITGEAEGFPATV

PR = target: T2, PR (Homo sapiens, UniProt P06401); test: PR reporter gene assay; format: cell-based; details: for inhibition of PR transactivation (in words): 10 μM compound
T2 sequence (P06401 165-933 limits assumed): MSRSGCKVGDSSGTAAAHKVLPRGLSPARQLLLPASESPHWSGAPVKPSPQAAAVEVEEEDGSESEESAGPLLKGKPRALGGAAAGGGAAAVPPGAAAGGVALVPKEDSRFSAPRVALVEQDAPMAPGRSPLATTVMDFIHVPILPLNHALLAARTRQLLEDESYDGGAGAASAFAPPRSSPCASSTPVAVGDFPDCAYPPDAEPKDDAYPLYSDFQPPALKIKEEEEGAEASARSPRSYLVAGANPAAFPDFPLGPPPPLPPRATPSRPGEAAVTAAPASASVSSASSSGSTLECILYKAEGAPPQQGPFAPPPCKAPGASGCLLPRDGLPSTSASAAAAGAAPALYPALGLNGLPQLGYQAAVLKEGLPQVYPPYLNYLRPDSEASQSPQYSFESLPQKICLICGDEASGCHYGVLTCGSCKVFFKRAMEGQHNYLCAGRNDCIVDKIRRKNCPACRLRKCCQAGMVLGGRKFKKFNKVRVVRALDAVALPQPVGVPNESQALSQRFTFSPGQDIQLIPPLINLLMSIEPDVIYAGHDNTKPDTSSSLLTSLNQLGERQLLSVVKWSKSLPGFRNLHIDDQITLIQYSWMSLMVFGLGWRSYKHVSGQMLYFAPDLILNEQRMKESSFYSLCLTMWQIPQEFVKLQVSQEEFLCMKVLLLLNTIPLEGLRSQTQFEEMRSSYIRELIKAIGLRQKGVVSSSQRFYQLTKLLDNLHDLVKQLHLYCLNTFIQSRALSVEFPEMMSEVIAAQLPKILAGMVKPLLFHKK

AR = target: T3, AR (Homo sapiens, UniProt P10275); test: AR reporter gene assay; format: cell-based; details: 10 μM compound
T3 sequence (P10275 1-920): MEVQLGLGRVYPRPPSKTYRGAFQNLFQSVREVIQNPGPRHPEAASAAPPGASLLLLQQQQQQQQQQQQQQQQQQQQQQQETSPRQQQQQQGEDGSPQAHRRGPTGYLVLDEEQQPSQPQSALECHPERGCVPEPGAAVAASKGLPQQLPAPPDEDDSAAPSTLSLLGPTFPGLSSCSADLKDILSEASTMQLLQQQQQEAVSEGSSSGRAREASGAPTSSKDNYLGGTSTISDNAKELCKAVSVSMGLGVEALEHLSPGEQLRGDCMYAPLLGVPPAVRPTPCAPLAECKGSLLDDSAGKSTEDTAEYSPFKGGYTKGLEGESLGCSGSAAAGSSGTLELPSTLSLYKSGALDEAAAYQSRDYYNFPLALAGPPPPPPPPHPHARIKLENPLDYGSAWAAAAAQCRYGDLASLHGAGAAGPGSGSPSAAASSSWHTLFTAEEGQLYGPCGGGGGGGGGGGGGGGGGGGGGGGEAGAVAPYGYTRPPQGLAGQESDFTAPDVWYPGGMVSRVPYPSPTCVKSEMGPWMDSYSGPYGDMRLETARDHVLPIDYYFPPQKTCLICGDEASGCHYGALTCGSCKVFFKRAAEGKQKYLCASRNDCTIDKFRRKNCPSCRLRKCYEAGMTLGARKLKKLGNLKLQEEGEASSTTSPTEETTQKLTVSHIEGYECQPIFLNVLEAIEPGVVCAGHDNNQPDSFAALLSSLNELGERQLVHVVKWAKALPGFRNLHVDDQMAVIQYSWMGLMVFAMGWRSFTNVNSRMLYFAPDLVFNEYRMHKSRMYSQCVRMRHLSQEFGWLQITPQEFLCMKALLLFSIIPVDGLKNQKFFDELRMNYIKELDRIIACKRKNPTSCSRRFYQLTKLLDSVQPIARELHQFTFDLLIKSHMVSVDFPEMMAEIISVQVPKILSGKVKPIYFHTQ

GR = target: T4, GR (Rattus norvegicus, UniProt P06536); test: GR reporter gene assay; format: cell-based, human; details: 10 μM compound
T4 sequence (P06536 1-795): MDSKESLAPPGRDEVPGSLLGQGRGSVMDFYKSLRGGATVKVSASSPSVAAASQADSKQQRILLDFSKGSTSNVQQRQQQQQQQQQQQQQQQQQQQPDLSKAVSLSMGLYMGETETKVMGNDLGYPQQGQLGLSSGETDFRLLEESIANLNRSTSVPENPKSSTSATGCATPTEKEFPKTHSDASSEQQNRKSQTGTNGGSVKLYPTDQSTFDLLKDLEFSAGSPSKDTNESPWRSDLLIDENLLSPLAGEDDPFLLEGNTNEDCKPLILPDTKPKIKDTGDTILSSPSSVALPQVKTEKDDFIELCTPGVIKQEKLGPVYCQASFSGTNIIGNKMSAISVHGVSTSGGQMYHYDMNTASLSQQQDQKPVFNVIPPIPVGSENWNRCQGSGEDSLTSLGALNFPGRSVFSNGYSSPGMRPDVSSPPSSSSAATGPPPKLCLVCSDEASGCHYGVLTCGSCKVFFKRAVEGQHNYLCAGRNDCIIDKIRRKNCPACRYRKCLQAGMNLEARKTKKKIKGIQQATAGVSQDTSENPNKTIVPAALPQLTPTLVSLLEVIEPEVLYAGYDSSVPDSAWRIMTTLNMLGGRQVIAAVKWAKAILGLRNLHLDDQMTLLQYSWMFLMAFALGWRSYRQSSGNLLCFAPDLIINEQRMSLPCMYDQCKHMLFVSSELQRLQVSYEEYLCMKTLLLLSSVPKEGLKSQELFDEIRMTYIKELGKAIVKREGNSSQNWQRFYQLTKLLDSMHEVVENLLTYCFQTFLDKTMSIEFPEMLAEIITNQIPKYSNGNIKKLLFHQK

pS2 mRNA = test: qRT-PCR of 17β-estradiol-induced pS2 mRNA; format: cell-based; details: 2 hours; compound 51 at 5 μM

| Compound | Reporter Assay (% Activity) ER (ER) [%] | other results |
| --- | --- | --- |
| Cn1c(=O)c2[nH]cnc2n(C)c1=O [Compound 1, Theophylline, reference compound] |  | inhibition of ER transactivation (in words) (ER): did not inhibit; activity at 10 µM (ER; read-out: Reporter Assay (% Activity) ER): 93%; inhibition of PR transactivation (in words) (PR): did not inhibit; activity at 10 µM (PR; T47D, read-out: Reporter Assay (% Activity) PR): 105% |
| Cn1c(=O)c2[nH]c(Cc3ccccc3)nc2n(C)c1=O [Compound 4] | 94 |  |
| CCCSc1nc2c([nH]1)c(=S)n(C)c(=S)n2C [Compound 19] | 79 |  |
| CCCCCCCCCCSc1nc2c([nH]1)c(=O)n(C)c(=O)n2C [Compound 37] | 109 |  |
| CCCC(C)Sc1nc2c([nH]1)c(=S)n(C)c(=O)n2C (stereo not shown) [Compound 45] | 94 | inhibition of AR transactivation (in words) (AR): no activity; inhibition of ER transactivation (in words) (ER): no activity; inhibition of GR transactivation (in words) (GR): no activity; inhibition of PR transactivation (in words) (PR): moderately potent inhibitors |
| C[C@]12CC[C@@H]3c4ccc(O)cc4C[C@@H](CCCCCCCCC[S+]([O-])CCCC(F)(F)C(F)(F)F)[C@H]3[C@@H]1CC[C@@H]2O (stereo partly shown) [ICI 182,780, reference compound] |  | effect on 17β-estradiol induction of pS2 mRNA (pS2 mRNA): inhibited induction of pS2 mRNA |

Now from value to molecule, other results behind:

| Reporter Assay (% Activity) ER (ER) [%] | Compound | other results |
| --- | --- | --- |
| 106 | CCc1nc2c([nH]1)c(=O)n(C)c(=O)n2C [Compound 2] |  |
| 88 | CCCCc1nc2c([nH]1)c(=O)n(C)c(=O)n2C [Compound 3] |  |
| 111 | CCCSc1nc2c([nH]1)c(=O)n(C)c(=O)n2C [Compound 7] |  |
| 104 | Cn1c(=O)c2[nH]c(SCc3ccccc3)nc2n(C)c1=O [Compound 8] |  |
| 6 | CSc1nc2c([nH]1)c(=O)n(C)c(=O)n2C [Compound 10] |  |
| 101 | CSc1nc2c([nH]1)c(=S)n(C)c(=S)n2C [Compound 13] |  |
